Measurements from patent US12064437B2, “Methods for treating systemic lupus erythematosus and the use of biomarkers as a predictor of clinical sensitivity to therapies” (CELGENE CORPORATION, priority 2020, dated 2024).

System: subjects with active autoantibody-positive SLE
Assay: Phase 2b study in SLE: Lupus Low Disease Activity State (LLDAS) response
Assay type: in vivo, human
Conditions: for percentages of LLDAS responders: Week 24; for LLDAS response at Week 24, stratified difference from placebo / percentage of subjects who achieved LLDAS response at Week 24: overall subjects; for percentage of subjects who achieved LLDAS response at Week 24: NRI, ITT
Experimental: The pharmacokinetics, pharmacodynamics (PD), efficacy, and safety of oral iberdomide ((S)-3-[4-({4-[(morpholin-4-yl)methyl]phenyl}methoxy)-1-oxo-1,3-dihydro-2H-isoindol-2-yl]piperidine-2,6-dione-hydrogen chloride (1/1)) were evaluated in a phase 2b study in subjects with active autoantibody-positive SLE.
Adult SLE patients (N=288) with a ≥6-month history of SLE and SLE Disease Activity Index (SLEDAI 2K) ≥6 were randomized to placebo (n=83) or iberdomide 0.15 mg QD (n=42), 0.3 mg QD (n=82), or 0.45 mg QD (n=81). Clinical response was determined by the SLE Responder Index 4 (SRI-4) at week 24 for all patients and within pre-specified biomarker-enriched subsets based on expression of Ikaros, Aiolos, the Type 1 IFN signature (IFI27, IFI44, IFI44L, RSAD2), and other gene modules measured from fingerstick blood collected at baseline (Modular Immune Profile Test, DxTerity Diagnostics, Inc.). The primary objective of the study was to evaluate the clinical efficacy of 3 doses of iberdomide (0.45 mg once per day [QD], 0.30 mg QD, or 0.15 mg QD) compared to placebo, for the treatment of active SLE using the SLE Responder Index at Week 24.
The percentages of LLDAS responders for key mRNA and DNA subgroups were as follows: • IKZF1 high: 23.4%, 17.0%, and 14.3% for 0.45 mg, 0.30 mg, and 0.15 mg QD iberdomide, respectively, compared with 12.5% for placebo. • IKZF3 high: 27.8%, 9.4%, 14.3%, respectively, compared with 11.1% for placebo. • Type 1 IFN module high: 17.5%, 14.3%, and 24.0%, respectively, compared with 8.3% for placebo. • Ikaros IFN module high: 16.1%, 14.3%, and 20.0%, respectively, compared with 8.2% for placebo. Drug Dose, Drug Concentration, and Relationship to Response

O=C1CC[C@H](N2Cc3c(OCc4ccc(CN5CCOCC5)cc4)cccc3C2=O)C(=O)N1 [iberdomide, (S)-3-[4-({4-[(morpholin-4-yl)methyl]phenyl}methoxy)-1-oxo-1,3-dihydro-2H-isoindol-2-yl]piperidine-2,6-dione-hydrogen chloride (1/1)]
percentages of LLDAS responders (IKZF1 high, 0.15 mg QD): 14.3%
percentages of LLDAS responders (IKZF1 high, 0.30 mg QD): 17.0%
percentages of LLDAS responders (IKZF1 high, 0.45 mg QD): 23.4%
percentages of LLDAS responders (IKZF3 high, 0.15 mg QD): 14.3%
percentages of LLDAS responders (IKZF3 high, 0.30 mg QD): 9.4%
percentages of LLDAS responders (IKZF3 high, 0.45 mg QD): 27.8%
percentages of LLDAS responders (Ikaros IFN module high, 0.15 mg QD): 20.0%
percentages of LLDAS responders (Ikaros IFN module high, 0.30 mg QD): 14.3%
percentages of LLDAS responders (Ikaros IFN module high, 0.45 mg QD): 16.1%
percentages of LLDAS responders (Type 1 IFN module high, 0.15 mg QD): 24.0%
percentages of LLDAS responders (Type 1 IFN module high, 0.30 mg QD): 14.3%
percentages of LLDAS responders (Type 1 IFN module high, 0.45 mg QD): 17.5%
LLDAS response at Week 24, stratified difference from placebo (0.15 mg QD): 6.7%
percentage of subjects who achieved LLDAS response at Week 24 (0.15 mg QD): 19.0%
percentage of subjects who achieved LLDAS response at Week 24 (0.30 mg QD): 17.1%
LLDAS response at Week 24, stratified difference from placebo (0.45 mg QD): 6.9%
percentage of subjects who achieved LLDAS response at Week 24 (0.45 mg QD): 19.8%
